Assay results from US11111500B2, “Mutated protoporphyrinogen IX oxidase (PPX) genes” (CIBUS US LLC, priority 2010, dated 2021).

What was measured:
potato plastidal PPX = assay: Tolerance to saflufenacil of HemG mutant E. coli complemented with potato plastidal PPX (plate based selection, colony count); type: cell-based, Solanum tuberosum
Excerpt: StcPPX1, less its chloroplast transit peptide was cloned from cDNA into Cibus' proprietary functional screening vector. This vector may be used both for functional screening, and for GRON QC. The potato PPX genes were used to complement the HemG mutant strain of E. coli, which lacks a functional HemG gene, a bacterial homolog of PPX. Without a complementing gene, the media must be supplemented with hematin for E. coli growth.
In order to assess mutations that confer tolerance to PPX inhibitors such as Chateau (flumioxazin-Valent/Sumitomo), Naja (diphenylether—MAI) or Kixor (saflufenacil—BASF). Pure active ingredients for the PPX inhibiting herbicides Chateau (flumioxazin—Valent/Sumitomo), Spartan (sulfentrazone—FMC) and Kixor/Sharpen (saflufenacil—BASF) were obtained. […] This was further refined, and 0.75 mM sulfentrazone was also used to select for tolerance. […] All potato mitochondrial PPX genes and alleles were tested for natural tolerance to sulfentrazone and flumioxazin, but none were tolerant.
Tolerance of all possible amino acid substitutions at each position displaying tolerance to sulfentrazone or flumioxazin were tested. Next, single amino acid substitutions were combined in all permutations and combinations to assess complementation and herbicide tolerance.

[1] = test system: leaf disc explants of in vitro grown potato plants; assay: Leaf disk kill curve (callus formation in leaf disc explants); type: cell-based; conditions: solid Haberlach culture medium, 1% DMSO
Procedure: Aimed at establish the concentration of sulfentrazone that will inhibit callus formation in leaf disc explants, leaf discs were punched with a sterile hole punch from 5 weeks old in vitro grown potato plants. The leaf discs were cultured in petri dishes containing solid Haberlach culture medium containing various concentrations of Sulfentrazone in a final concentration of 1% DMSO. Six leaf discs cultured at each herbicide concentration. Plates were sealed with micropore tape and incubated at room temperature (approximately 23° C.). In an initial experiment, 7.8 μM sulfentrazone, the lowest concentration tested in that experiment, was sufficient to stop callus formations and bleach all leaf discs within 20 days. […] Similar leaf disc kill curve experiments were performed using saflufenacil where 0.5 μM of this herbicide was sufficient to inhibit callus formation in almost all leaf discs after 20 days.

**Q.** With `CC(C)N(C)S(=O)(=O)NC(=O)c1cc(-n2c(=O)cc(C(F)(F)F)n(C)c2=O)c(F)cc1Cl` [saflufenacil] as the molecule, how does the “saflufenacil concentration with no growth of the wildtype construct” value (potato plastidal PPX) read?
**A.** Its value is 0.3 mM.

**Q.** What about the “concentration sufficient to inhibit callus formation in almost all leaf discs after 20 days” value [1] of the same molecule?
**A.** Its value is 0.5 µM.
